The source of these data is PMC11191095, “QSAR Reveals Decreased Lipophilicity of Polar Residues Determines the Selectivity of Antimicrobial Peptide Activity” (ACS Omega, 2024).

Where a SMILES comes first, the peptide text is derived from it.

Data set [1] can be described thus: RP-HPLC ElutionTime as indicator of hydrophobicity. The class given is physicochemical. The settings on record: indicator of overall hydrophobicity; semipreparative RP-HPLC, Waters SymmetryPrep C8, water/ACN gradient with 0.1% TFA, 8 mL/min, 25 °C, 254 nm. The method, then: Crude peptides, made up to 10 mg/mL in 0.1% TFA (v/v) in ddH2O, were subjected to preparative RP-HPLC purification on an Agilent 1100 system, with elution in gradient. A gradient program at a flow rate of 8 mL/min and column temperature of 25 °C was used to achieve elution with solvent A (0.1% trifluoroacetic acid (TFA) in water (v/v)) and solvent B (0.1% TFA in 100% acetonitrile (ACN) (v/v)). The elution program was as follows: (1) At 0–73 min, 100% solvent A to 0% solvent B; (2) at 73–77 min, 40% solvent A to 60% solvent B; (3) at 77–93 min, 10% solvent A to 90% solvent B; (4) at 93–105 min, 100% solvent A to 0% solvent B. Data collected were the retention time of the major fraction for each peptide in minutes as RP-HPLC ElutionTime (ElutionTime). Absorbance was detected at 254 nm, and fractions were collected manually. The fractions collected were spun in a speed-vac to remove ACN and the contents lyophilized. After freeze-drying for 24 h the peptides were dissolved in 10% (v/v) acetic acid before being lyophilized for a second time and then stored at −20 °C.
Molecular descriptors used in the QSAR analysis included: charge, sequence length, overall lipophilicity (L), lipophilicity contributed by the polar or nonpolar residues (LP and LN), summation of the side chain surface areas of the total peptide, polar or nonpolar residues (SCSA, SCSAP, and SCSAN), the molecular weight of the entire peptide, polar or nonpolar residues (Mw, MwP, and MwN), count of small lipophilic residues (CSL) or aromatic residues (CAR), the total number of hydrogen bond donor and acceptor centers (HBtot, HBdon, and HBacc), the total number of rotatable bonds (#RotBonds) and various amphipathicity descriptors (LP/L, LP/LN, L/LN, Q/L, Q/LN, SCSAP/SCSAN, MwP/MwN, Q/CSL, and Q/CAR) (Suppl. Table S1). Experimentally determined characteristics included ElutionTime as an indicator of overall peptide hydrophobicity and the CD structure of each peptide determined in POPG/POPE lipids representing Gram-negative membranes, POPG lipids for Gram-positive membranes, and SDS micelles for fungal membranes. AMPs with an α-helical structure were labeled 4, β-sheets were labeled 3, β-turns and mixed conformations were labeled 2, and disordered structures were labeled 1.

In data set [2] the test system is C. krusei NCPF 3876. Nature of the data set: microbe, parasite or virus in culture. The class given is cell-based. The settings on record: NCPF 3876, 20 h. The essentials:
(§1)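 Peptides 128→2 μg/mL, 2-fold series; inoculum ~5 × 10^5 CFU/mL from overnight culture (OD600 0.01, mixed 1:1). MHB non-cation-adjusted for bacteria, RPMI 1640 + 2% glucose for fungi. 37 °C, 20 h, OD600. MIC50/MIC90 at 50%/90% inhibition; n ≥ 3.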

Data set [3] deals with C. parapsilosis NCPF 3209. Briefly: microbe, parasite or virus in culture. The format is cell-based. The settings on record: NCPF 3209, 20 h. In short, it runs like this: as §1
Data set [4] deals with C. glabrata NCPF 8018. Nature of the data set: microbe, parasite or virus in culture. The class given is cell-based. The settings on record: NCPF 8018, 20 h. The essentials: as §1
Data set [5] has as its system C. tropicalis NCPF 8760. Briefly: microbe, parasite or virus in culture. The class given is cell-based. Conditions: NCPF 8760, 20 h. In short, it runs like this: as §1
Data set [6] relates to C. albicans NCPF 3281. Nature of the data set: microbe, parasite or virus in culture. Conditions: NCPF 3281, 20 h. The format is cell-based. The essentials: as §1
The subject of data set [7] is eight Gram-negative, four Gram-positive bacteria, and six fungi. Briefly: Antimicrobial screening against panel of 18 pathogens. The format is cell-based. The settings on record: 128 to 2 μg/mL, 37 °C, 20 h. As for the experimental part:
Antimicrobial activity was evaluated against a panel of 18 pathogens consisting of eight Gram-negative strains (E. coli NCTC 12923, E. coli LEC001, Pseudomonas aeruginosa PAO1, P. aeruginosa NCTC 13437, Acinetobacter baumannii ATCC 17978, A. baumannii AYE, Klebsiella pneumoniae M6, K. pneumoniae NCTC 13368), four Gram-positive strains (Staphylococcus aureus ATCC 9144, S. aureus NCTC 13616, S. aureus USA300, S. aureus 1199B) and six fungi (Candida auris TDG 1912, C. albicans NCPF 8018, C. krusei NCPF 3876, C. tropicalis NCPF 8760, and C. parapsilosis NCPF 3209). Pathogens were grown in noncation adjusted Mueller Hinton broth (MHB, for bacteria) or Roswell Park Memorial Institute (RPMI 1640) + 2% glucose (for fungi) at 37 °C with 180 rpm shaking and maintained on solid media (tryptic soy agar for bacteria and Sabouraud dextrose agar for fungi). For an antibiogram, see Suppl.
The 46 peptides were serially diluted (128 to 2 μg/mL) in media down polypropylene 96-well plates. […] Plates were incubated at 37 °C for 20 h, and the optical density was determined spectrophotometrically at 600 nm. Minimum inhibition concentrations (MICs) were determined from a minimum of three biological repeats and are reported in μg/mL as well as μM. […]

In the case of `CC(C)[C@H](NC(=O)[C@H](CS)NC(=O)[C@@H](N)CCCNC(=N)N)C(=O)N[C@@H](CS)C(=O)N[C@H](C(=O)N[C@@H](CCCNC(=N)N)C(=O)NCC(=O)N[C@@H](Cc1ccccc1)C(=O)N[C@@H](CS)C(=O)O)[C@@H](C)O` [ThetaDefA] (H-RCVCTRGFC-OH; N-terminus and C-terminus assumed), the “ElutionTime (RP-HPLC retention time of major fraction)” value in data set [1] amounted to 22 min. The “Modal MIC50” value in data set [2], in data set [3], in data set [4], in data set [5] and in data set [6] was more than 122.6 µM each time. Moreover, the “Modal MIC90” value in data set [2], in data set [3], in data set [4], in data set [5] and in data set [6] was more than 122.6 µM throughout. Moreover, the “antimicrobial activity in the screens” value in data set [7] is listed as “no activity”.

In the case of `CC(C)[C@H](NC(=O)CNC(=O)[C@H](CCCNC(=N)N)NC(=O)[C@H](CCCNC(=N)N)NC(=O)[C@H](CS)NC(=O)[C@@H](NC(=O)[C@H](CS)NC(=O)[C@@H](N)CCCNC(=N)N)C(C)C)C(=O)N[C@@H](CS)C(=O)O` [ThetaDefB] (H-RCVCRRGVC-OH; N-terminus and C-terminus assumed), the “ElutionTime (RP-HPLC retention time of major fraction)” value in data set [1] came to 20 min. Besides, the “Modal MIC50” value in data set [2], in data set [3], in data set [4], in data set [5] and in data set [6] was more than 116.4 µM each time. Besides, the “Modal MIC90” value in data set [2], in data set [3], in data set [4], in data set [5] and in data set [6] was more than 116.4 µM in each case. In addition, the “antimicrobial activity in the screens” value in data set [7] is on record as “no activity”.
